According to the supplement of paper PMC3974653:
Counter-ions that a name gives are not always drawn.

System: MTT (mouse pheochromocytoma)
Assay: IC50 of cell viability (ATP content)
Conditions: (24 or 48 h)
Outline: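 MTT mouse pheochromocytoma cells, cultured overnight at 37°C, 5% CO2 in DMEM with 5% FBS and 1% horse serum, were exposed in white 1536-well plates to library compounds in DMSO at final 0.5 nM to 46 µM (8 concentrations) for 24 or 48 hrs. CellTiter-Glo luminescence was normalised to positive-control (100%) and DMSO (0%) wells. A four-parameter logistic fit gave the IC50.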

Structure (SMILES)	IC50 of cell viability [µM]
CN1Cc2c(N)cccc2C(c2ccccc2)C1.O=C(O)/C=C\C(=O)O (stereo not drawn) [NOMIFENSINE MALEATE]	> 46
OC[C@H]1O[C@@H](n2cnc3c2N=CNC[C@H]3O)C[C@@H]1O [Pentostatin]	> 46
COC1=NC(=NC(=C1N\C2=N\CCN2)Cl)C [Moxonidine]	> 46
CN(C)C(=O)Oc1ccc[n+](C)c1.[Br-] [PYRIDOSTIGMINE BROMIDE]	> 46
CC(C)(c1ccc(O)cc1)c1ccc(O)cc1 [Bisphenol A]	> 46
CN(C)c1ccc(/N=N/S(=O)(=O)[O-])cc1 [Fenaminosulf]	> 46
COc1cc2c(cc1OC)[C@@H](Cc1cc(OC)c(OC)c(OC)c1)[N@+](C)(CCCOC(=O)CC/C=C/CCC(=O)OCCC[N@+]1(C)CCc3cc(OC)c(OC)cc3[C@H]1Cc1cc(OC)c(OC)c(OC)c1)CC2 [Mivacurium]	> 46
O=C(O)c1cc(O)c(O)c(O)c1 [Gallic acid]	> 46
CC(C(O)c1ccccc1)N(C)CCOC(c1ccccc1)c1ccccc1 (stereo not drawn) [DIFETEROL HYDROCHLORIDE]	> 46
CC(C)=CCC/C(C)=C/C=C/C(C)=C/C=C/C(C)=C/C=C/C=C(C)/C=C/C=C(C)/C=C/C=C(\C)CCC=C(C)C [LYCOPENE]	> 46
COC12CCC3(CC1[C@](C)(O)C(C)(C)C)[C@H]1Cc4ccc(O)c5c4[C@@]3(CCN1CC1CC1)C2O5 (stereo partly drawn) [Bupenorphine]	> 46
CCN1\C=C(\C(O)=O)C(=O)C2=C1N=C(N=C2)N3CCNCC3 [Pipemidic acid]	> 46
O=C(O)CCC(=O)Nc1ccc([S+](=O)([O-])Nc2nccs2)cc1 [Succinylsulfathiazole]	> 46
CCN(CC)c1ccc(/N=N/c2ccc([S+](=O)([O-])N(C)C)cc2)c([S+](=O)([O-])NCC[n+]2ccccc2)c1 [ORANGE OIL]	> 46
CCN(CC)N(O)N=O.CCNCC [2-(N,N-DIETHYLAMINO)DIAZENOLATE-2-OXIDE DIETHYLAMONIUM SALT]	> 46
CN1C2CCC1CC(NC(=O)n1c(=O)[nH]c3ccccc31)C2 (stereo not drawn) [ITASETRON HYDROCHLORIDE HYDRATE]	> 46
CCNC(C)Cc1cccc(C(F)(F)F)c1 (stereo not drawn) [DEXFENFLURAMINE]	> 46
Cc1cc(C(=O)NCCc2ccc([S+](=O)([O-])NC(=O)NN3CCCCCC3)cc2)no1 [Glisoxepide]	> 46
CC1=C(/C=C/C(C)=C/C=C/C(C)=C/C=C/C=C(C)/C=C/C=C(C)/C=C/C2=C(C)C(=O)CCC2(C)C)C(C)(C)CCC1=O [CANTHAXANTHIN (euglenanone)]	> 46
CC(C)n1c(/C=C/[C@H](O)C[C@H](O)CC(=O)[O-])c(-c2ccc(F)cc2)c2ccccc21 [Fluvastatina]	> 46
C=CC(=O)Nc1cc2c(Nc3ccc(F)c(Cl)c3)ncnc2cc1OCCCN1CCOCC1 [Canertinib]	> 46

Structure (SMILES)	IC50 of cell viability [µM]
CCCCC(=O)O[C@@]1(CCC2C3CC\C4=C\C(=O)CCC4(C)C3C(O)CC12C)C(=O)CO (stereo partly drawn) [HYDROCORTISONE VALERATE]	> 46
OCc1ccccc1O [SALICYL ALCOHOL]	> 46
C1C\N=C(/N1)C2COC3=C(O2)C=CC=C3 (stereo not drawn) [IDAZOXAN]	> 46
Cc1c(OCC(F)(F)F)ccnc1C[S+]([O-])c1nc2ccccc2[nH]1 (stereo not drawn) [Lansoprazole]	> 46
Cc1ncc[nH]1 [2-Methylimidazole]	> 46
CCC(N)Cc1c[nH]c2ccccc12 (stereo not drawn) [ETRYPTAMINUM]	> 46
COC/1=N/N(CS[P](=S)(OC)OC)C(=O)S1 [Methidathion]	> 46
CCCCCCCCCCCCCC[N+](C)(C)Cc1ccccc1.O.[Cl-] [BENZALKONIUM CHLORIDE]	> 46
COc1ccccc1OCC(O)CN1CCN(CC(=O)Nc2c(C)cccc2C)CC1 (stereo not drawn) [RANOLAZINE]	> 46
FC(F)(F)C(F)(F)C(F)(F)C(F)(F)C(F)(F)F [DODECAFLUOROPENTANE]	> 46
CC(C)(CO)[C@@H](O)C(=O)NCCC(=O)NCCSSCCNC(=O)CCNC(=O)[C@H](O)C(C)(C)CO [PANTETHINE]	> 46
C[C@H](CS)C(=O)N1CCC[C@H]1C(=O)O [CAPTOPRIL]	> 46
O=C(O)Cc1ccccc1Oc1ccc(Cl)cc1Cl [Fenclofenac]	> 46
COc1ccc(CCN(C)CCCC(C#N)(c2cc(OC)c(OC)c(OC)c2)C(C)C)cc1OC (stereo not drawn) [METHOXY VERAPAMIL]	> 46
CCCOc1ccc(C(=O)OCCN(CC)CC)cc1N [Proparacaine hydrochloride]	> 46
CCCc1nc2c(C)cc(-c3nc4ccccc4n3C)cc2n1Cc1ccc(-c2ccccc2C(=O)O)cc1 [TELMISARTAN]	> 46
OC\1=C(O)\C(=O)\C(=C(O)/C1=O)O [TETROQUINONE]	> 46
CC(=O)O[C@@H](C)C(=O)OCC[N+](C)(C)C.CC(=O)O[C@@H](C)C(=O)OCC[N+](C)(C)C.O=S(=O)([O-])c1cccc2c(S(=O)(=O)[O-])cccc12 [Aclatonium napadisilate]	> 46
CC(C)c1nc(CN(C)C(=O)NC(C(=O)NC(Cc2ccccc2)CC(O)C(Cc2ccccc2)NC(=O)OCc2cncs2)C(C)C)cs1 (stereo not drawn) [Ritonavir]	> 46
NC/1=N/C(=O)N(/C=C1)[C@@H]2O[C@H](CO)[C@@H](O)C2(F)F [GEMCITABINE HYDROCHLORIDE]	> 46
CCC1NC(=O)C(NC(=O)c2ncccc2O)C(C)OC(=O)C(c2ccccc2)NC(=O)C2CC(=O)CCN2C(=O)C(Cc2ccccc2)N(C)C(=O)C2CCCN2C1=O (stereo not drawn) [VIRGINIAMYCIN]	> 46

Structure (SMILES)	IC50 of cell viability [µM]
CCC(C)CCCCC(=O)NC(CCN)C(=O)NC(C(=O)NC(CCN)C(=O)NC1CCNC(=O)C(C(C)O)NC(=O)C(CCN)NC(=O)C(CCN)NC(=O)C(CC(C)C)NC(=O)C(Cc2ccccc2)NC(=O)C(CCN)NC1=O)C(C)O.O=[S+]([O-])(O)O (stereo not drawn) [POLYMYXIN B SULFATE]	> 46
N=C(N)NC(=N)NCCc1ccccc1.[Cl-].[H+] [Phenformin HCl]	> 46
Cc1ccccc1OCC(O)CO (stereo not drawn) [MEPHENESIN]	> 46
NNc1nncc2ccccc12 [Hydralazine hydrochloride]	> 46
Cc1ccc(Cl)c(Nc2ccccc2C(=O)[O-])c1Cl.O.[Na+] [Meclofenamic acid sodium salt monohydrate]	> 46
O=C1CCC(c2ccccc2)(C2CCN(Cc3ccccc3)CC2)C(=O)N1 (stereo not drawn) [Benzetimidum]	> 46
CNC(C)Cc1ccccc1 (stereo not drawn) [(?)-Methamphetamine]	> 46
CN1C(=O)CC(C)(c2ccccc2)C1=O (stereo not drawn) [Methsuximide]	> 46
O=NN(CCCl)C(=O)NCCCl [Carmustine]	> 46
O=C(CS(=O)Cc1ccco1)NC/C=C/COc1cc(CN2CCCCC2)ccn1 (stereo not drawn) [LAFUTIDINE]	> 46
COC(=O)CCC[N+](C)(C)C [CARPRONIUM CHLORIDE]	> 46
CCc1cc(OC)c(C[C@H](C)N)cc1OC [(+)-2,5-Dimethoxy-4-ethylamphetamine]	> 46
C[N+](C)(C)CCO [Choline bromide]	> 46
C[N+]1(CCC(C(N)=O)(c2ccccc2)c2ccccc2)CCCCC1 [FENPIVERINII BROMIDUM]	> 46
CN(C)[C@H]\1[C@@H]2C[C@H]3\C(=C(\O)[C@@]2(O)C(=O)\C(=C1O)C(N)=O)C(=O)C4=C(O)C=CC(=C4[C@]3(C)O)Cl [Chlortetracycline hydrochloride]	> 46
CC(O)C(=O)O (stereo not drawn) [Lactic acid]	> 46
C[N+](C)(C)CCOC(=O)C(O)(c1ccccc1)c1ccccc1 [METOCINII IODIDUM]	> 46
CN1C(=O)NC(=O)C(C)(C2=CCCCC2)C1=O (stereo not drawn) [HEXOBARBITAL]	> 46
C=CCN=C=S [Allyl isothiocyanate]	> 46
C[N@+]1([O-])[C@H]2CC[C@H]1C[C@H](OC(=O)[C@@H](CO)c1ccccc1)C2 [Atropine oxide]	> 46
Cl.CN1CCCC(CC1)N2\N=C(CC3=CC=C(Cl)C=C3)/C4=CC=CC=C4C2=O (stereo not drawn) [AZELASTINE HYDROCHLORIDE]	> 46
